According to BindingDB's records for doi:10.1021/jm801322h (Pfizer, 2009):

Target: T1, Gag-Pol polyprotein [588-1027] (Human immunodeficiency virus type 1 group M subtype B (isolate HXB2), UniProt P04585)
T1 construct: 588-1027
Assay: Reverse Transcriptase Assay
Settings: pH 7.8; 37 °C
Procedure: The inhibition of the RNA-dependent DNA polymerase activity of the HIV-1 reverse transcriptase enzyme was measured using a primer extension assay. The substrate-incorporated radioactivity was measured using the Topcount NXT with a reading time of 1 minute/well and IC50 were deduced from the dose response curves obtained.

## CNCc1n[nH]c2cccc(Oc3cc(C#N)cc(C#N)c3)c12 [5-({3-[(methylamino)methyl]-1H-indazol-4-yl}oxy)benzene-1,3-dicarbonitrile]
  IC50: > 30 µM
